Data as given in ChEMBL document CHEMBL5608244, “Preclinical Evaluation of Dihydropyrazole-Cored Positron Emission Tomography (PET) Ligands for Imaging of Receptor-Interacting Serine/Threonine Protein Kinase 1 (RIPK1) in the Brain” (J Med Chem, 2024).

Legend:
[1] = Stability in Balb/c mouse plasma measured for 60 to 150 mins by reversed-phase HPLC analysis; assay type: ADME; details: time 60-150 min
[2] = Drug uptake in Sprague-Dawley rat brain at 10 to 17.6 MBq, iv pretreated with 1-(5-(3-fluorophenyl)-4,5-dihydro-1H-pyrazol-1-yl)-2,2-dimethylpropan-1-one followed by compound administration measured upto 30 mins by PET analysis; assay type: ADME, organism-based; details: in vivo, 0.5 h, dose 10-17.6 MBq
[3] = Drug uptake in Sprague-Dawley rat brain at 10 to 17.6 MBq, iv treated for about 1 min by PET analysis; assay type: ADME, organism-based; details: in vivo, dose 10-17.6 MBq
[4] = Lipophilicity, logD of compound at pH 7.4 by shake flask method; assay type: physicochemical; details: buffer
[5] = Retention time of the compound by HPLC method; assay type: physicochemical
[6] = Drug uptake in Sprague-Dawley rat bone at 10 to 17.6 MBq, iv treated upto 30 mins by PET analysis; assay type: ADME, organism-based, Bone element; details: in vivo, 0.5 h, dose 10-17.6 MBq
[7] = Stability in saline measured for 60 to 150 mins by reversed-phase HPLC analysis; assay type: physicochemical; details: buffer; time 60-150 min

Structure (SMILES)	Stability [1] [%]	Drug uptake [2]	SUVmax [3]	logD [4]	Retention_time [5] [min]	Drug uptake [6]	Stability [7] [%]
CC(C)(C)C(=O)N1N=CCC1c1cc(F)cc([18F])c1 (stereo not given)	> 97	Active	1.8	2.58	13.76	Not Active	> 99
Cc1ccc(C2CC=NN2C(=O)C(C)(C)C)cc1F (stereo not given)	–	–	–	–	21.7	–	–
CC(C)(C)C(=O)N1N=CCC1c1cc(F)cc(F)c1 (stereo not given)	–	–	–	–	13.66	–	–
CC(C)(C)C(=O)N1N=CCC1c1cccc(F)c1 (stereo not given)	–	–	–	–	21.74	–	–
Cc1ccc(C2CC=NN2C(=O)C(C)(C)C)cc1[18F] (stereo not given)	–	Active	1.4	2.98	21.81	Not Active	–
